# Literature values in patent US20070141140A1, “Semi-solid formulations for immediate release intended for the oral administration of drugs” (PHARMACIA ITALISA S.P.A., priority 2003, published 2007).
# Conditions: for weight concentration in the semi-solid matrix above which dissolution velocity drops significantly: polyethylene glycol or Gelucire 44/14 matrix
SMILES,"active ingredient released (PEG 1500 matrix, 10% by weight Triamterene, 2 or 5% polysorbate 80 (Tween 80), in an hour)",weight concentration in the semi-solid matrix above which dissolution velocity drops significantly
Nc1nc(N)c2nc(-c3ccccc3)c(N)nc2n1 [Triamterene],at least 80%,exceeding 5%
"CN1C(=O)C(O)N=C(c2ccccc2)c2cc(Cl)ccc21 (stereo not drawn) [temazepam, Temazepam]",–,> 15%
